Literature values in US20150366901A1, “Methods of Treating Heart Failure” (The Trustees of the University of Pennsylvania, priority 2013, published 2015).

Tests used:
[1] = nitrite formed from nitrate by oral cavity commensal bacteria
[2] = tested on: old mice; settings: supplementation for 3 weeks, 478 AU before, young counterparts 332 AU
[3] = tested on: healthy volunteers; settings: ingestion of 8 mmol, 3 hours post-ingestion

Compound: O=[N+]([O-])O [nitrate]
- half-life in plasma (circulating nitrate): ~5 h
- share of circulating nitrate actively taken up by the salivary glands (concentrated in saliva, rest excreted by the kidneys): Up to 25%

Compound: O=NO [nitrite]
- oral bioavailability [1]: > 95%

Compound: O=NO [sodium nitrite]
- aortic pulse wave velocity (PWV) after supplementation [2]: 384 AU

Compound: inorganic nitrate
- aortic pulse wave velocity [3]: decrease in aortic pulse wave velocity
